Data as given in patent US4705854A, “Phenothiazine compounds” (priority 1984, dated 1987).
Where two headings read alike, the source gives them in different places.

How the values were obtained:
[1] = biological target: T1, longitudinal muscle from the intact ileum of guinea-pigs (histamine) (Cavia porcellus, UniProt P31389); assay: In vitro antihistamine activity: shift of histamine concentration-response curves (Schild plot), isolated guinea-pig ileum longitudinal muscle; assay type: cell-based; settings: vs histamine, one hour incubation with test compound, 60 min
T1 construct: The longitudinal muscle was isolated from the intact ileum of guinea-pigs; from tissue; host or cells: longitudinal muscle of guinea-pig ileum (Hartley, male)
Description: A. In vitro antihistamine activity: The longitudinal muscle was isolated from the intact ileum of guinea-pigs (Hartley, male 250-400 g) and placed in an organ bath under 300 mg tension. After one hour of equilibration, cumulative concentration-response curves (Van Rossum, J. M., Arch. Int. Pharmacodyn. Ther. 143, 299-330, 1963) to histamine were obtained. Following washing, the tissues were incubated for one hour with the test compound and then a second histamine concentration-response curve was run. Shifts to the right of the agonist concentration-response curve produced by the antagonists were used to construct Schild plots (Arunlakshana, O. and Schild, H. O., Br. J. Pharmacol. 14, 48-58, 1959). Regression of Log (dr-l) on Log [B], where dr is an equiactive response in the presence and absence of antagonist and [B] is the molar concentration of antagonist, allowed an estimate of pA2, i.e. the negative log of the concentration of antagonist which shifts the control histamine concentration response curve 2X to the right.

[2] = background statement on promethazine; cited from earlier work
[3] = cited from earlier work

T1 sequence (P31389 whole entry): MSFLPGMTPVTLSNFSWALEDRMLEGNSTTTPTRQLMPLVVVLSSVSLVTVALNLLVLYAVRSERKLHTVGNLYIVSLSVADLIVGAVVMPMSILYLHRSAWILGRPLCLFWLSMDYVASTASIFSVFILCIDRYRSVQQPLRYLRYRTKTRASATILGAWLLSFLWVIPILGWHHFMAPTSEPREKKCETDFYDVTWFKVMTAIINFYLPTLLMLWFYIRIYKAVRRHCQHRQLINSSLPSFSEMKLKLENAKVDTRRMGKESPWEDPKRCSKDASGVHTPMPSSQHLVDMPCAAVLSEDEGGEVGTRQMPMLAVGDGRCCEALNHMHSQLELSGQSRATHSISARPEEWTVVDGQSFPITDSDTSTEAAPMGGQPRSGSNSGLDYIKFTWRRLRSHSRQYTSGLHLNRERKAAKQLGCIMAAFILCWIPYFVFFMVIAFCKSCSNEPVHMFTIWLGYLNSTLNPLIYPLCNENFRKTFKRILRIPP

**Q.** For `CN(C)CCCN1c2ccccc2Sc2ccc(S(=O)(=O)O)cc21` [Example 2, 10-(3'-N,N-Dimethylaminopropyl)phenothiazine-2-sulphonic acid hemihydrate], which pA2 [1] is on record?
**A.** The pA2 was 7.8.

**Q.** With `CC(CN1c2ccccc2Sc2ccccc21)N(C)C` (centres unmarked) [promethazine, 10-(2-dimethylaminopropyl)phenothiazine] as the molecule, how does the anticholinergic activity [2] read?
**A.** The anticholinergic activity was “potent anticholinergic activity”.

**Q.** And the sedation or drowsiness ([3]; in some patients, antihistamines now in use)?
**A.** Its sedation or drowsiness is “cause sedation or drowsiness in some patients”.

**Q.** Which sedation or drowsiness ([3]; in vivo) does the source give for `COc1ccc(CN(CCN(C)C)c2ccccn2)cc1` [pyrilamine] here?
**A.** Its sedation or drowsiness is “cause sedation or drowsiness in some patients”.

**Q.** Which sedation or drowsiness ([3]; in vivo) does the source give for `Cc1ccc(/C(=C\CN2CCCC2)c2ccccn2)cc1` [triprolidine] here?
**A.** The sedation or drowsiness was “cause sedation or drowsiness in some patients”.
